Patent US7659299B2, “Compounds inhibiting the binding of sap for treating osteoarthritis” (Pentraxin Therapeutics Limited, priority 2003, dated 2010)
“And” between values parts separate entries of the source, which are not always exact repeats. Equal entries are not always repeated.

What was measured:
SAP [1] = target: T1, SAP (Homo sapiens, UniProt P02743); assay: Inhibition of binding of 125I radiolabelled SAP to influenza virus immobilized in microtitre plates; design: 5 μl of radiolabelled SAP in TN; from tissue; conditions: for inhibition at 0.2 µM / inhibition at 2 µM / inhibition at 20 µM / inhibition at 200 µM / inhibition at 2000 µM: read-out: Percent inhibition of binding of radiolabelled SAP to immobilized influenza virus; for Inhibition of binding of SAP to immobilised influenza virus, in words: summary of Table 3
Protocol: A concentrated suspension of purified influenza virus A/Shanghai/24/90 at 10 mg protein per ml in PBS was diluted 1:50 in PBS and then dispensed to polystyrene microtitre plates at 50 μl volumes per well, and left overnight at 4° C. All wells were then emptied before blocking by addition to each well of 200 μl of 2% w/v BSA in PBS and incubation at room temperature for 1 h. All wells were then washed three times with 200 μl volumes of PBS containing 0.05% v/v Tween 20, prior to equilibration for 2 min with 0.01M Tris buffered 0.14M NaCl/0.002M CaCl2 at pH 8.0 (TC buffer), containing 4% w/v BSA and 0.05% v/v Tween 20 (TCBT buffer). The wells were then emptied before adding to each one the following reagents. […] For background, non-specific, non calcium dependent, binding in the presence of EDTA: 5 μl radiolabelled SAP in TN and 45 μl 0.01M Tris buffered 0.14M NaCl at pH 8.0 containing 11.1 mM EDTA, 4.4% w/v BSA and 0.06% w/v Tween 20 (TEBT buffer) to provide final concentrations of EDTA, 10 mM; BSA, 4%; Tween 20, 0.05%. […] All wells were then incubated at room temperature for 2 h before being washed three times with 200 μl volumes of TCBT, allowed to dry for 1 h at room temperature, and bound radiolabelled SAP was then counted. The compounds tested in the experiment shown here were the same as those specified in Example B above.
The capacity of the compounds tested to inhibit binding of SAP to the immobilised influenza virus is expressed as the percentage by which SAP binding was reduced compared to binding in the absence of any inhibitor (Table 3).

SAP [2] = target: T1, SAP; assay: Surface plasmon resonance: calcium dependent binding of SAP to immobilised synthetic Aβ-42 amyloid fibrils
Description: (§1) Surface plasmon resonance (SPR) is a low throughput but powerfully informative method to identify compounds that are bound by, or themselves bind to SAP, either in a calcium dependent fashion or independently of calcium, for the purposes of the present invention. For example, low molecular weight compounds that inhibit binding of SAP to its macromolecular ligands, including target ligands relevant to the present invention, can be detected by their effect on the signal generated by fluid phase SAP binding to ligand immobilised on the solid phase (Example A). Furthermore, when SAP itself is immobilised on the solid phase in an SPR instrument, the interaction with it of test molecules provided in the fluid phase generates a signal that can be detected and quantified. Purified SAP immobilized within an SPR instrument gives a quantifiable signal when it is exposed to another molecule that forms a complex with the SAP, and this is distinct from the absence of such a signal if no complex is formed. […] Another low throughput but powerful direct method is isothermal calorimetry that measures the heat of interaction in solution between SAP and test compounds according to the present invention. The binding affinity can be measured precisely as a guide to potential efficacy. Typical results by this method for the dissociation constants, Kd, between SAP and various compounds are as follows:
Synthetic Aβ-42 amyloid fibrils (28) were covalently immobilised on the reactant surface of the Fisons IAsys surface plasmon resonance instrument, and then exposed to isolated SAP (32) in solution in Tris-buffered physiological saline in the absence of calcium (shown as TN/N in the Figures). No binding of SAP occurred and thus no signal was generated. Introduction of calcium allowed the SAP to bind specifically to the immobilised amyloid fibrils, generating a readily detectable signal (FIG. 1). […]

SAP [3] = target: T1, SAP; assay: Inhibition of binding of 125I radiolabelled SAP to Neisseria meningitidis immobilized in microtitre plates; design: 5 μl of radiolabelled SAP in TN; from tissue; conditions: for inhibition at 0.2 µM / inhibition at 2 µM / inhibition at 20 µM / inhibition at 200 µM / inhibition at 2000 µM: read-out: Percent inhibition of binding of radiolabelled SAP to immobilized Neisseria meningitidis; for Inhibition of binding of SAP to meningococci, in words: summary of Table 1
Protocol: A suspension of heat killed Neisseria meningitidis at 1×10^8 organisms per ml in PBS was dispensed to polystyrene microtitre plates at 50 μl volumes per well, and left overnight at 4° C. All wells were then washed three times with 200 μl volumes of PBS containing 0.05% v/v Tween 20, prior to equilibration for 2 min with 0.01M Tris buffered 0.14M NaCl/0.002M CaCl2 at pH 8.0 (TC buffer), containing 4% w/v BSA and 0.05%/v Tween 20 (TCBT buffer). The wells were then emptied before adding to each one the following reagents. […] For background, non-specific, non calcium dependent, binding in the presence of EDTA: 5 μl radiolabelled SAP in TN and 45 μl 0.01M Tris buffered 0.14M NaCl at pH 8.0 containing 11.1 mM EDTA, 4.4% w/v BSA and 0.06% w/v Tween 20 (TEBT buffer) to provide final concentrations of EDTA, 10 mM; BSA, 4%; Tween 20, 0.05%. […] All wells were then incubated at room temperature for 2 h before being washed three times with 200 μl volumes of TCBT, allowed to dry for 1 h at room temperature, and bound radiolabelled SAP was then counted.
The capacity of the compounds tested to inhibit binding of SAP to meningococci is expressed as the percentage by which SAP binding was reduced compared to binding in the absence of any inhibitor (Table 1).

SAP [4] = target: T1, SAP; assay: Inhibition of binding of 125I radiolabelled SAP to native long chromatin immobilized in microtitre plates; design: 5 μl of radiolabelled SAP in TN; from tissue; conditions: for Inhibition of binding of SAP to chromatin, in words: Table 2; for inhibition at 0.2 µM / inhibition at 2 µM / inhibition at 20 µM / inhibition at 200 µM / inhibition at 2000 µM: read-out: Percent inhibition of binding of radiolabelled SAP to immobilized native long chromatin
SAP [5] = target: T1, SAP; assay: Isothermal calorimetry: dissociation constants between SAP and compounds; format: binding; conditions: for Kd: replicate measurements, read-out: Kd in micromoles per liter (replicate measurements)
Description: as §1, with “follows: […]” for “follows:”

T1 sequence (P02743 20-223): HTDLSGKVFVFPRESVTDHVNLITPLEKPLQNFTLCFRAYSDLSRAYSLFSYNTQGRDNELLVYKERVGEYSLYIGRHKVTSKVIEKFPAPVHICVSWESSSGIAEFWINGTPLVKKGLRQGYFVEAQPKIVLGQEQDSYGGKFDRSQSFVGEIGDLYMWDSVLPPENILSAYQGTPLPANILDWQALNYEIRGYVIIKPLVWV

Structure (SMILES): C[C@H](CS)C(=O)N1CCC[C@@H]1C(=O)O [Ro-15-3479, 1-[(S)-3-Mercapto-2-methylpropionyl]-D-proline]
- inhibition at 0.2 µM (SAP [1]; compound 200 nM): 12%
- inhibition at 2 µM (SAP [1]; compound 2 μM): 30%
- inhibition at 20 µM (SAP [1]; compound 20 μM): 40%
- inhibition at 200 µM (SAP [1]; compound 200 μM): 51%
- Effect on SPR signal reflecting ligand binding by SAP (SAP [2]; 50 μmol/l, added after SAP had bound, regenerated surface (FIG. 3)): completely reversed
- SPR signal on addition of calcium after SAP and compound (SAP [2]; 100 μmol/l, added before calcium (FIG. 2)): no signal
- Effect on binding of SAP to immobilised amyloid fibrils and the corresponding SPR signal (SAP [2]; 500 μmol/l in TC buffer, added after SAP had bound (FIG. 1)): completely reversed the binding of SAP
- inhibition at 0.2 µM (SAP [3]; compound 200 nM): 3%
- inhibition at 2 µM (SAP [3]; compound 2 μM): 42%
- inhibition at 20 µM (SAP [3]; compound 20 μM): 50%
- inhibition at 200 µM (SAP [3]; compound 200 μM): 54%

Structure (SMILES): C[N+](C)(C)CCOP(=O)([O-])O [Phosphocholine, reference compound]
- Inhibition of binding of SAP to chromatin, in words (SAP [4]): virtually no effect
- inhibition at 0.2 µM (SAP [4]; compound 200 nM): 2%
- inhibition at 2 µM (SAP [4]; compound 2 μM): 0%
- inhibition at 20 µM (SAP [4]; compound 20 μM): 0%
- inhibition at 200 µM (SAP [4]; compound 200 μM): 3%
- inhibition at 2000 µM (SAP [4]): 19%
- Kd in micromoles per liter (replicate measurements) (SAP [5]): No binding
- inhibition at 20 µM (SAP [1]; compound 20 μM): 5%
- inhibition at 200 µM (SAP [1]; compound 200 μM): 5%
- Inhibition of binding of SAP to immobilised influenza virus, in words (SAP [1]): virtually no effect
- inhibition at 20 µM (SAP [3]; compound 20 μM): 4%
- inhibition at 2000 µM (SAP [3]; compound 2 mM): 24%
- Inhibition of binding of SAP to meningococci, in words (SAP [3]): virtually no effect

Structure (SMILES): CC(=O)N1CCC[C@@H]1C(=O)O [N-acetyl-D-proline]
- Kd (SAP [5]): 16 µM and 23 µM and 17 µM

Structure (SMILES): O=C(O)[C@H]1CCCN1C(=O)COc1ccc(OCC(=O)N2CCC[C@@H]2C(=O)O)cc1 [Ro-64-2856, (R)-1-[[4-[2-[(R)-2-Carboxy-pyrrolidin-1-yl]-2-oxo-ethoxy]-phenoxy]-acetyl]-pyrrolidine-2-carboxylic acid]
- inhibition at 0.2 µM (SAP [4]; compound 200 nM): 1%
- inhibition at 2 µM (SAP [4]; compound 2 μM): 36%
- inhibition at 20 µM (SAP [4]; compound 20 μM): 56%
- inhibition at 200 µM (SAP [4]; compound 200 μM): 75%
- inhibition at 2000 µM (SAP [4]; compound 2 mM): 91%
- Kd (SAP [5]): 0.019 µM and 0.02 µM
- inhibition at 0.2 µM (SAP [1]; compound 200 nM): 3%
- inhibition at 2 µM (SAP [1]; compound 2 μM): 77%
- inhibition at 20 µM (SAP [1]; compound 20 μM): 82%
- inhibition at 200 µM (SAP [1]; compound 200 μM): 84%
- inhibition at 2000 µM (SAP [1]; compound 2 mM): 87%
- inhibition at 0.2 µM (SAP [3]; compound 200 nM): 0%
- inhibition at 2 µM (SAP [3]; compound 2 μM): 65%
- inhibition at 20 µM (SAP [3]; compound 20 μM): 74%
- inhibition at 200 µM (SAP [3]; compound 200 μM): 65%
- inhibition at 2000 µM (SAP [3]; compound 2 mM): 100%

Structure (SMILES): Cc1c(OCC(=O)N2CCC[C@@H]2C(=O)O)cccc1OCC(=O)N1CCC[C@@H]1C(=O)O [Ro-64-2848, (R)-1-[[3-[2-[(R)-1-Carboxy-pyrrolidin-1-yl]-2-oxo-ethoxy]-2-methyl-phenoxy]-acetyl]-pyrrolidine-2-carboxylic acid]
- Percent inhibition of binding of radiolabelled SAP to immobilized native long chromatin (SAP [4]; compound 200 nM): 0%
- Percent inhibition of binding of radiolabelled SAP to immobilized native long chromatin (SAP [4]; compound 2 μM): 22%
- Percent inhibition of binding of radiolabelled SAP to immobilized native long chromatin (SAP [4]; compound 20 μM): 65%
- Percent inhibition of binding of radiolabelled SAP to immobilized native long chromatin (SAP [4]; compound 200 μM): 95%
- Percent inhibition of binding of radiolabelled SAP to immobilized native long chromatin (SAP [4]; compound 2 mM): 98%
- Percent inhibition of binding of radiolabelled SAP to immobilized influenza virus (SAP [1]; compound 200 nM): 24%
- Percent inhibition of binding of radiolabelled SAP to immobilized influenza virus (SAP [1]; compound 2 μM): 65%
- Percent inhibition of binding of radiolabelled SAP to immobilized influenza virus (SAP [1]; compound 20 μM): 81%
- Percent inhibition of binding of radiolabelled SAP to immobilized influenza virus (SAP [1]; compound 200 μM): 81%
- Percent inhibition of binding of radiolabelled SAP to immobilized influenza virus (SAP [1]; compound 2 mM): 85%
- Percent inhibition of binding of radiolabelled SAP to immobilized Neisseria meningitidis (SAP [3]; compound 200 nM): 1%
- Percent inhibition of binding of radiolabelled SAP to immobilized Neisseria meningitidis (SAP [3]; compound 2 μM): 64%
- Percent inhibition of binding of radiolabelled SAP to immobilized Neisseria meningitidis (SAP [3]; compound 20 μM): 93%
- Percent inhibition of binding of radiolabelled SAP to immobilized Neisseria meningitidis (SAP [3]; compound 200 μM): 100%
- Percent inhibition of binding of radiolabelled SAP to immobilized Neisseria meningitidis (SAP [3]; compound 2 mM): 100%

Structure (SMILES): NCCOP(=O)(O)O [Phosphoethanolamine, reference compound]
- Inhibition of binding of SAP to chromatin, in words (SAP [4]): inhibition at high concentration, but only modest effects when diluted
- inhibition at 0.2 µM (SAP [4]; compound 200 nM): 3%
- inhibition at 2 µM (SAP [4]; compound 2 μM): 9%
- inhibition at 20 µM (SAP [4]; compound 20 μM): 36%
- inhibition at 200 µM (SAP [4]; compound 200 μM): 59%
- inhibition at 2000 µM (SAP [4]; compound 2 mM): 94%
- Kd (SAP [5]): 36 µM and 27 µM and 48 µM
- inhibition at 0.2 µM (SAP [1]; compound 200 nM): 1%
- inhibition at 2 µM (SAP [1]; compound 2 μM): 8%
- inhibition at 20 µM (SAP [1]; compound 20 μM): 42%
- inhibition at 200 µM (SAP [1]; compound 200 μM): 51%
- inhibition at 2000 µM (SAP [1]; compound 2 mM): 69%
- Inhibition of binding of SAP to immobilised influenza virus, in words (SAP [1]): inhibition at high concentration, but only modest effects when diluted
- inhibition at 0.2 µM (SAP [3]; compound 200 nM): 7%
- inhibition at 2 µM (SAP [3]; compound 2 μM): 18%
- inhibition at 20 µM (SAP [3]; compound 20 μM): 32%
- inhibition at 200 µM (SAP [3]; compound 200 μM): 41%
- inhibition at 2000 µM (SAP [3]; compound 2 mM): 95%
- Inhibition of binding of SAP to meningococci, in words (SAP [3]): inhibition at high concentration, but only modest effects when diluted
